Laboratory results: US10960045B2, “Methods and compositions for the treatment of epidermolysis bullosa” (Constant Therapeutics LLC, priority 2015, dated 2021)
“Also recorded” adds a separate entry of the source.

Tests used:
[1] = test system: Recessive dystrophic epidermolysis bullosa (RDEB) mice; assay: Toe length and loss/fusion of digits in RDEB mice treated four weeks; type: in vivo, mouse
Protocol: FIGS. 1A-1B. Recessive dystrophic epidermolysis bullosa (RDEB) mice were treated with angiotensin (1-7) peptide for four weeks. FIG. 1A consists of images of the right forepaw of a RDEB mouse before and after treatment with angiotensin (1-7). […] FIG. 1B is a graph of the average toe length of RDEB mice treated with angiotensin (1-7) peptide for four weeks (“Tarix”) or a vehicle control (“Vehicle”) as a percentage of average toe length before treatment.
FIG. 2 is a graph of average toe length of recessive dystrophic epidermolysis bullosa (RDEB) mice treated with either angiotensin (1-7) peptide, losartan, or a vehicle control for four weeks as a percentage of average toe length before treatment.
Recessive dystrophic epidermolysis bullosa (RDEB) is caused by a mutation in the gene encoding type VII collagen. RDEB mice display marked fibrosis, which leads to deleterious phenotypes including the fibrosis-driven loss and fusion of digits over time (see, e.g., Nyström, A. et al., EMBO MOLECULAR MEDICINE 7(9):1211-28 (2015)).
RDEB mice were treated with angiotensin (1-7) for four weeks (nine mice) or left untreated (three mice). Three wild type mice served as controls.

[2] = test system: α-SMA positive myofibroblasts; assay: α-SMA immunostaining of mouse forepaw cryosections; type: in vivo; conditions: RDEB mice, four weeks treatment, relative to untreated RDEB mice
Source text: (§1) FIG. 5 depicts images of α-SMA (top panel), fibronectin (middle panel), and CD11b (bottom panel) immunostained cryosections of mouse forepaws. The cryosections were obtained from age-matched wild-type mice, untreated recessive dystrophic epidermolysis bullosa (RDEB) mice, and RDEB mice treated with angiotensin (1-7) for four weeks. […] Cells were counterstained with 4′,6-diamidino-2-phenylindole (DAPI).
(§2) Cryosections of mouse forepaws were also immunostained for α-SMA (alpha smooth muscle actin), fibronectin, and CD11b. α-SMA is a myofibroblast cell marker, which correlates with fibrotic disease. Fibronectin correlates with dermal fibrosis. CD11b (integrin αM subunit) is a leukocyte marker, which is expressed by monocytes, granulocytes (e.g., neutrophils), macrophages, and natural killer cells.

[3] = test system: galectin 3; assay: Western blot of whole protein lysates of mouse forepaws: galectin 3; type: in vivo; conditions: RDEB mouse forepaw lysates, four weeks treatment, relative to untreated RDEB mice
Source text: (§3) FIG. 7 depicts tenascin-C, thrombospondin-1, pSMAD2/3, galectin 3, and β-tubulin Western blots of whole protein lysates of mouse forepaws. Samples were obtained from age-matched wild-type mice, untreated recessive dystrophic epidermolysis bullosa (RDEB) mice, and RDEB mice treated with angiotensin (1-7) for four weeks.
(§4) FIG. 8 is a graph depicting the quantification of Western blot bands immunostained with antibodies directed against tenascin-C, thrombospondin-1, pSMAD2/3, and galectin 3. Samples consisted of whole protein lysates of mouse forepaws obtained from age-matched wild-type mice, untreated recessive dystrophic epidermolysis bullosa (RDEB) mice, and RDEB mice treated with angiotensin (1-7) for four weeks. Samples were normalized against β-tubulin. […] Each bar corresponds to a mean value, and error bars correspond to standard error of the mean (SEM).
(§5) Whole protein lysates from mouse forepaws were analyzed by Western blotting with antibodies directed against tenascin-C, thrombospondin-1, pSMAD2/3, galectin 3, and β-tubulin (FIG. 7). Thrombospondin 1 can activate transforming growth factor beta (TGFβ) signaling, which is associated with fibrosis. TGFβ signals through an intracellular SMAD pathway, and thus, phosphorylated-SMAD (e.g., pSMAD2/3) correlates with TGFβ-associated fibrosis. […] Western blotting results were quantified by densitometry and normalized against β-tubulin.

[4] = test system: fibronectin; assay: Fibronectin immunostaining of mouse forepaw cryosections; type: in vivo; conditions: RDEB mice, four weeks treatment, relative to untreated RDEB mice
Source text: as §1, §2

[5] = test system: thrombospondin-1; assay: Western blot of whole protein lysates of mouse forepaws: thrombospondin-1; type: in vivo; conditions: RDEB mouse forepaw lysates, four weeks treatment, relative to untreated RDEB mice
Source text: as §3, §4, §5

[6] = test system: Recessive dystrophic epidermolysis bullosa (RDEB) mice; assay: Blistering of forepaws of RDEB mice; type: in vivo, mouse; conditions: four weeks treatment, wild type controls lacked blistering
[7] = test system: pSMAD2/3; assay: Western blot of whole protein lysates of mouse forepaws: pSMAD2/3; type: in vivo; conditions: RDEB mouse forepaw lysates, four weeks treatment, relative to untreated RDEB mice
Source text: as §3, §4, §5

[8] = test system: CD11b-positive inflammatory leukocytes; assay: CD11b immunostaining of mouse forepaw cryosections, CD11b-positive cells counted with ImageJ; type: in vivo; conditions: RDEB mice, four weeks treatment
Source text: as §1
FIG. 6 is a graph depicting the quantification of CD11b-positive cells per mm^2 in images of immunostained cryosections of mouse forepaws. The cryosections were obtained from age-matched wild-type mice, untreated recessive dystrophic epidermolysis bullosa (RDEB) mice, and RDEB mice treated with angiotensin (1-7) for four weeks. CD11b stains neutrophils and macrophages. […] Each bar corresponds to a mean value, and error bars correspond to standard error of the mean (SEM).
Cryosections of mouse forepaws were also immunostained for α-SMA (alpha smooth muscle actin), fibronectin, and CD11b. α-SMA is a myofibroblast cell marker, which correlates with fibrotic disease. Fibronectin correlates with dermal fibrosis. […]
The number of CD11b-positive cells per mm^2 was quantified using ImageJ software. […] Identical thresholds were applied to all images, the images were converted to binary images, and all particles >10 pixles^2 were automatically counted.

[9] = test system: tenascin-C; assay: Western blot of whole protein lysates of mouse forepaws: tenascin-C; type: in vivo; conditions: RDEB mouse forepaw lysates, four weeks treatment, relative to untreated RDEB mice
Source text: as §3, §4, §5

[10] = test system: tenascin-C; assay: Tenascin-C immunostaining of mouse forepaw cryosections; type: in vivo; conditions: RDEB mice, four weeks treatment, relative to untreated RDEB controls; P<0.001
Source text: FIG. 3 depicts images of tenascin-C immunostained cryosections of mouse forepaws. The cryosections were obtained from age-matched wild-type mice, untreated recessive dystrophic epidermolysis bullosa (RDEB) mice, and RDEB mice treated with angiotensin (1-7) for four weeks. Each top panel corresponds to cryosections of the walking pads of a mouse, and each bottom panel corresponds to sections of toes. Tenascin-C is present at low abundance in uninjured skin, and it increases in fibrotic skin. […] Tenascin-C staining was observed primarily just below the dermal-epidermal junction in angiotensin (1-7) treated mice, which corresponds to the initial site of injury in RDEB mice. Cells were counterstained with 4′,6-diamidino-2-phenylindole (DAPI), and the scale bar corresponds to 200 μm.
FIG. 4 is a graph depicting the quantification of the fluorescence intensity of cryosection images of mouse forepaws immunostained with an anti-tenascin-C antibody. […]
Immunostaining was performed on cryosections of mouse forepaws of wild-type mice, untreated RDEB mice, and RDEB mice treated with angiotensin (1-7) for four weeks. […] Tenascin-C immunostaining was visualized using fluorescence microscopy (FIG. 3). Immunostaining was quantified with ImageJ software on images obtained with identical microscope settings and exposure time. […]

[11] = test system: Recessive dystrophic epidermolysis bullosa (RDEB) mice; conditions: four weeks, results published by Nyström et al.; cited from earlier work

## Asp^1-Arg^2-Val^3-Tyr^4-Ile^5-His^6-Pro^7 [angiotensin (1-7)]
[1]; relative to vehicle-treated RDEB controls (results published by Nyström et al.)
  average toe length as a percentage of average toe length before treatment: significant reduction in the decrease in toe length; also recorded: protected against RDEB-associated decreases in toe length
[1]; right forepaw, four weeks treatment
  fibrosis-driven loss and fusion of digits: reduced the expression of this deleterious phenotype; also recorded: protected against RDEB-associated decreases in toe length and fusion of digits
[2]
  α-SMA positive cells (myofibroblasts) in forepaw: fewer α-SMA positive cells; also recorded: reduced the number of α-SMA positive myofibroblasts
[3]
  galectin-3 abundance, Western blot normalized against β-tubulin: reduced galectin-3
[4]
  dermal fibronectin immunostaining in forepaw: less fibronectin immunostaining; also recorded: reduced
[5]
  thrombospondin-1 abundance, Western blot normalized against β-tubulin: reduced abundance of the TGFβ activator thrombospondin-1
[6]
  blistering of forepaws: displayed blistering
[7]
  phosphorylated SMAD2/3 (pSMAD2/3) abundance, Western blot normalized against β-tubulin: reduced abundance of phosphorylated SMAD2/3
[8]; relative to untreated RDEB mice
  CD11b-positive cells in forepaw dermis: fewer CD11b-positive cells; also recorded: reduced; also recorded: reduction in CD11b-positive cell density
[8]; versus age-matched wild type mice
  number of CD11b-positive cells per mm^2 compared with wild type mice: about the same number of CD11b-positive cells per mm^2 as wild type mice
[9]
  tenascin-C abundance, Western blot normalized against β-tubulin: reduced tenascin-C
[10]
  tenascin-C immunostaining (fluorescence intensity) in forepaw dermis: significant (P<0.001) reduction in tenascin-C staining; also recorded: significantly lowered the amount of tenascin-C staining; also recorded: significant reduction in tenascin-C immunostaining

## CCCCc1nc(Cl)c(CO)n1Cc1ccc(-c2ccccc2-c2nn[nH]n2)cc1 [losartan]
[11]
  average toe length as a percentage of average toe length before treatment (losartan): similar
